Test results from US6818767B2, “Quinoline derivatives” (Hoffmann-La Roche Inc., priority 2001, dated 2004).
pIC50: −log10 of the molar value.

Target: T1, mouse NPY5-receptor (mNPY5) (Mus musculus, UniProt O70342)
T1 construct: The full-length cDNA encoding the mouse NPY5 (mNPY5) receptor was amplified from mouse brain cDNA; expressed in transfected cells; membrane preparation
T1 sequence (O70342 1-466): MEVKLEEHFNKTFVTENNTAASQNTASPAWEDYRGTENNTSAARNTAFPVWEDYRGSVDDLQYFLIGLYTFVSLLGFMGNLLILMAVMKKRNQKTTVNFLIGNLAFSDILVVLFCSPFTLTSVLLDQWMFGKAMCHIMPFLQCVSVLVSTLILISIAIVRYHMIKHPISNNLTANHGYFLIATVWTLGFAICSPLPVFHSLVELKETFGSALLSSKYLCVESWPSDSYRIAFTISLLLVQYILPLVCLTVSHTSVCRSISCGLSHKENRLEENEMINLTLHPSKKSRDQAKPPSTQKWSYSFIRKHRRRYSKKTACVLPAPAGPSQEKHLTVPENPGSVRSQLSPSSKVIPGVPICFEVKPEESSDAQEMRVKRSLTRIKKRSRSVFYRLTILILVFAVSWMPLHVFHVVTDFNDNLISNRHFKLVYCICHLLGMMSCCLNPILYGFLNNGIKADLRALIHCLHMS
Test: Radioligand competition binding
Details: displacement of 100 pM [125I]labelled peptide YY, membranes of HEK293 cells expressing recombinant mNPY5, 1 h at 22° C.; read-out: NPY5-R (mouse) IC50
Source text: The full-length cDNA encoding the mouse NPY5 (mNPY5) receptor was amplified from mouse brain cDNA using specific primers, designed based on the published sequence, and Pfu DNA-Polymerase (Stratagene). The amplification product was subcloned into the mammalian expression vector pcDNA3 using Eco RI and XhoI restriction sites. Positive clones were sequenced and one clone, encoding the published sequence was selected for generation of stable cell clones.
Human embryonic kidney 293 (HEK293) cells were transfected with 10 μg mNPY5 DNA using the lipofectamine reagent (Gibco BRL) according to the manufacturer's instruction. Two days after transfection, geneticin selection (1 mg/ml) was initiated and several stable clones were isolated. One clone was further used for pharmacological characterization.
Human embryonic kidney 293 cells (HEK293), expressing recombinant mouse NPY5-receptor (mNPY5) were broken by three freeze/thawing cycles in hypotonic Tris buffer (5 mM, pH 7.4, 1 mM MgCl2), homogenized and centrifuged at 72,000×g for 15 min. The pellet was washed twice with 75 mM Tris buffer, pH 7.4, containing 25 mM MgCl2 and 250 mM sucrose, 0.1 mM phenylmethylsulfonylfluoride and 0.1 mM 1,10-pheneanthrolin, resuspended in the same buffer and stored in aliquots at −80° C. Protein was determined according to the method of Lowry using bovine serum albumine (BSA) as a standard. […]

Compound	pIC50
Cc1cc(N2CCCC2)c2ccc(OCC3CC3)cc2n1 [Example 5, 7-cyclopropylmethoxy-2-methyl-4-pyrrolidin-1-yl-quinoline]	7.57
CCCCc1cc2c(N3CCCC3)ccnc2cc1O [Example 34, 6-butyl-4-pyrrolidin-1-yl-quinolin-7-ol]	8.00
